Measured values as given in ChEMBL document CHEMBL3991601, “The target landscape of clinical kinase drugs” (Science, 2017).
pKd: −log10 of the molar value. Where a name gives a salt, the structure may show the parent alone. Each block holds one compound with its values, some of them ahead of it. Activity calls are given as the source filed them.

Legend:
[1] = molecular target: Citron Rho-interacting kinase (Homo sapiens, UniProt O14578)
[2] = molecular target: T1, Dual specificity mitogen-activated protein kinase kinase 5 (Homo sapiens, UniProt Q13163)
T1 sequence (Q13163 whole entry): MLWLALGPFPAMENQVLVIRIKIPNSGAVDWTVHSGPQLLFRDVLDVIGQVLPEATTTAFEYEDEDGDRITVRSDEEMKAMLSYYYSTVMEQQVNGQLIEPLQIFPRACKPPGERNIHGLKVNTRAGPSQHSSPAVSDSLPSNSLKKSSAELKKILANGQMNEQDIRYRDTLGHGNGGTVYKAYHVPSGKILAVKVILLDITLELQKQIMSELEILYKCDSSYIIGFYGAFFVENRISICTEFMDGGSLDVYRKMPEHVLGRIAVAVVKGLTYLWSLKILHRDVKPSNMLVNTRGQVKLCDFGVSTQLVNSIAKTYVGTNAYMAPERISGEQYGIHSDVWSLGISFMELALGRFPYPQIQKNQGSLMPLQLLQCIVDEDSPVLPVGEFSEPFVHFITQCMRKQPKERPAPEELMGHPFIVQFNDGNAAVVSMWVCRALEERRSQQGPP

[3] = molecular target: Putative heat shock protein HSP 90-beta 2 (Homo sapiens, UniProt Q58FF8)
Putative heat shock protein HSP 90-beta 2, sequence (Q58FF8 whole entry): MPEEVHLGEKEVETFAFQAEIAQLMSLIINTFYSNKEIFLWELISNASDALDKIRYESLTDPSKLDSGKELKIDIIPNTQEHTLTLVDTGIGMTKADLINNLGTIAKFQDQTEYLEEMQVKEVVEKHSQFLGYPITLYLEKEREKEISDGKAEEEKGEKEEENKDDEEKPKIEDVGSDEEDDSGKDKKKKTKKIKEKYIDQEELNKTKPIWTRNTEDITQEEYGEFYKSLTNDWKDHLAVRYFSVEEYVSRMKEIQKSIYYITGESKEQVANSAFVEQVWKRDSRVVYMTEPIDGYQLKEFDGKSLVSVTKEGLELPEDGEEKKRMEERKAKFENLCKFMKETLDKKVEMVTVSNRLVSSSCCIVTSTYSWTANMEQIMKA

[4] = molecular target: Dual specificity protein kinase CLK2 (Homo sapiens, UniProt P49760)
Dual specificity protein kinase CLK2, sequence (P49760 whole entry): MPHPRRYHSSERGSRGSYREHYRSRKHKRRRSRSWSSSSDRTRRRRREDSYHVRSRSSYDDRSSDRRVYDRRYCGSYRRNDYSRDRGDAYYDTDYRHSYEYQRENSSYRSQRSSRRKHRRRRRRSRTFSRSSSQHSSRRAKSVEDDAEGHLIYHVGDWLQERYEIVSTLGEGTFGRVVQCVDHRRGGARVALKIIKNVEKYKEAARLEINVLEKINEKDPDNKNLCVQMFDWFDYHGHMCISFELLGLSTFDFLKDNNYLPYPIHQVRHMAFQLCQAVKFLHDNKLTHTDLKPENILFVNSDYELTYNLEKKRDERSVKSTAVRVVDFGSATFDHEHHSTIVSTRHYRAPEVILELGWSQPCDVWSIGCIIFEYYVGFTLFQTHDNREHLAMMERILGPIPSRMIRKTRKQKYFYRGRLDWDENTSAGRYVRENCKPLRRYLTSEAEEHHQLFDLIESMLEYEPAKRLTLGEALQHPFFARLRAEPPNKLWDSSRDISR

[5] = molecular target: T2, Dynamin-like GTPase OPA1, mitochondrial (Homo sapiens, UniProt O60313)
T2 sequence (O60313 whole entry): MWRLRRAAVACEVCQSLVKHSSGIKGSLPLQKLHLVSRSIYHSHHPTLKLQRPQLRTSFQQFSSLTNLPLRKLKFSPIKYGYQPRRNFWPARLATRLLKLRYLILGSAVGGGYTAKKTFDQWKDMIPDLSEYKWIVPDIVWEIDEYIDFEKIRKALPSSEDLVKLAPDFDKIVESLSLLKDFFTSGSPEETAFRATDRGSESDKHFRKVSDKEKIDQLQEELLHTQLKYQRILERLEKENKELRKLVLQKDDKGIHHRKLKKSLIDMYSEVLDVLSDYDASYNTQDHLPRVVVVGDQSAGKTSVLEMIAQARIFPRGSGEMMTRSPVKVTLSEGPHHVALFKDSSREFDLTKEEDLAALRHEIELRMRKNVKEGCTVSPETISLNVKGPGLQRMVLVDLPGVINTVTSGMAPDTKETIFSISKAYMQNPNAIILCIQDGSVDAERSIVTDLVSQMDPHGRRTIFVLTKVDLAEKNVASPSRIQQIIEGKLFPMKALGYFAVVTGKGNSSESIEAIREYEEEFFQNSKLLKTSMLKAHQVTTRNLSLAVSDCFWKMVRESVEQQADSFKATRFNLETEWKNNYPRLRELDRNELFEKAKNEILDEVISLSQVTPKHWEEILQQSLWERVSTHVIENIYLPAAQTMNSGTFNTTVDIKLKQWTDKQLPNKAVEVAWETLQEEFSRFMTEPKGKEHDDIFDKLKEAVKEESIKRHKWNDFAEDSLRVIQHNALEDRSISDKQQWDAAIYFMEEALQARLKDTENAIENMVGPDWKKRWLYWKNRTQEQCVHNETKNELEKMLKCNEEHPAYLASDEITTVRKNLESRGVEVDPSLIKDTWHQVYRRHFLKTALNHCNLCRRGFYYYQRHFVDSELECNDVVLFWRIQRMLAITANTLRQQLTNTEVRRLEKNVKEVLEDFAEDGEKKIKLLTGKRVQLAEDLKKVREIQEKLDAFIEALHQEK

Obg-like ATPase 1 = Obg-like ATPase 1 (Homo sapiens, UniProt Q9NTK5)
Obg-like ATPase 1, sequence (Q9NTK5 whole entry, looked up): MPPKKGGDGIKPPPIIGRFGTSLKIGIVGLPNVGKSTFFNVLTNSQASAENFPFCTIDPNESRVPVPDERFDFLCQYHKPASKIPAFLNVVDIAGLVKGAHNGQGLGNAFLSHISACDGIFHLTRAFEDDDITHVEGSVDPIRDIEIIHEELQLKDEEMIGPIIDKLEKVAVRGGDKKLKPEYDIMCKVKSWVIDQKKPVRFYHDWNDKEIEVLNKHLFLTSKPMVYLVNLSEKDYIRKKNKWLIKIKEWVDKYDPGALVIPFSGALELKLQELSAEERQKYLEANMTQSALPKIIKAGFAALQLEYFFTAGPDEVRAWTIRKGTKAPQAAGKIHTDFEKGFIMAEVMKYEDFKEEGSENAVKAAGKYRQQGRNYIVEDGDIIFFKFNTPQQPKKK

[6] = molecular target: T3, ATP-dependent RNA helicase DHX30 (Homo sapiens, UniProt Q7L2E3)
T3 sequence (Q7L2E3 whole entry): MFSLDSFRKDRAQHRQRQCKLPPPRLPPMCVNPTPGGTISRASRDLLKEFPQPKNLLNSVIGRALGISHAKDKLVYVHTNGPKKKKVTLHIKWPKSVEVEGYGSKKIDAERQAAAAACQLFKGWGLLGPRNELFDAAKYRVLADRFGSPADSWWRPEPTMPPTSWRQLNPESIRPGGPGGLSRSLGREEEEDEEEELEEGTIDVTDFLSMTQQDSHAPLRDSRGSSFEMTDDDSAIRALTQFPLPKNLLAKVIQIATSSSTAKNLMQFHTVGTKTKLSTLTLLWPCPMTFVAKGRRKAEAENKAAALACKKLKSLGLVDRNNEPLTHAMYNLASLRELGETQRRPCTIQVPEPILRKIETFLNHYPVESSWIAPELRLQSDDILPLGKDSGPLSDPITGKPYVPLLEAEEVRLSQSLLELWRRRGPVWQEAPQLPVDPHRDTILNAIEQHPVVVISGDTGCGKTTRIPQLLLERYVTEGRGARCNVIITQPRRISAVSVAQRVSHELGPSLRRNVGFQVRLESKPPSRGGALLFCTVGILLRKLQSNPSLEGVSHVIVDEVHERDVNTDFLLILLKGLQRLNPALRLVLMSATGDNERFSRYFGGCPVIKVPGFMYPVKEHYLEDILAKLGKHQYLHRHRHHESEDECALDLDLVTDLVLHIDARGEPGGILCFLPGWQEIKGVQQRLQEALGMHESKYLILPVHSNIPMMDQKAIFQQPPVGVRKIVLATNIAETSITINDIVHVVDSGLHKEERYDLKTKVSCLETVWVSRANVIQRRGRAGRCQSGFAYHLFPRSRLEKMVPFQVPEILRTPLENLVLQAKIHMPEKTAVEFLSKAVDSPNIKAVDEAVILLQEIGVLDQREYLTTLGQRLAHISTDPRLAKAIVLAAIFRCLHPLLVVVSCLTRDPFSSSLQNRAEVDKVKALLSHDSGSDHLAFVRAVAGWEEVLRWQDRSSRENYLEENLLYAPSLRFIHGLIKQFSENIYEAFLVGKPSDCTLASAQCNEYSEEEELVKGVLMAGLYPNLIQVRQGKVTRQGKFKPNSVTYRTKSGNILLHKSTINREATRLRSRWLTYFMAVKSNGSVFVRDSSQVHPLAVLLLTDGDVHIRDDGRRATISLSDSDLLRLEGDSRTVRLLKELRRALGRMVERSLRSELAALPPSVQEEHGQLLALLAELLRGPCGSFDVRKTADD
Also: in the data inactive means no Kd found up to 30 µM.

Citron Rho-interacting kinase, sequence (O14578 whole entry): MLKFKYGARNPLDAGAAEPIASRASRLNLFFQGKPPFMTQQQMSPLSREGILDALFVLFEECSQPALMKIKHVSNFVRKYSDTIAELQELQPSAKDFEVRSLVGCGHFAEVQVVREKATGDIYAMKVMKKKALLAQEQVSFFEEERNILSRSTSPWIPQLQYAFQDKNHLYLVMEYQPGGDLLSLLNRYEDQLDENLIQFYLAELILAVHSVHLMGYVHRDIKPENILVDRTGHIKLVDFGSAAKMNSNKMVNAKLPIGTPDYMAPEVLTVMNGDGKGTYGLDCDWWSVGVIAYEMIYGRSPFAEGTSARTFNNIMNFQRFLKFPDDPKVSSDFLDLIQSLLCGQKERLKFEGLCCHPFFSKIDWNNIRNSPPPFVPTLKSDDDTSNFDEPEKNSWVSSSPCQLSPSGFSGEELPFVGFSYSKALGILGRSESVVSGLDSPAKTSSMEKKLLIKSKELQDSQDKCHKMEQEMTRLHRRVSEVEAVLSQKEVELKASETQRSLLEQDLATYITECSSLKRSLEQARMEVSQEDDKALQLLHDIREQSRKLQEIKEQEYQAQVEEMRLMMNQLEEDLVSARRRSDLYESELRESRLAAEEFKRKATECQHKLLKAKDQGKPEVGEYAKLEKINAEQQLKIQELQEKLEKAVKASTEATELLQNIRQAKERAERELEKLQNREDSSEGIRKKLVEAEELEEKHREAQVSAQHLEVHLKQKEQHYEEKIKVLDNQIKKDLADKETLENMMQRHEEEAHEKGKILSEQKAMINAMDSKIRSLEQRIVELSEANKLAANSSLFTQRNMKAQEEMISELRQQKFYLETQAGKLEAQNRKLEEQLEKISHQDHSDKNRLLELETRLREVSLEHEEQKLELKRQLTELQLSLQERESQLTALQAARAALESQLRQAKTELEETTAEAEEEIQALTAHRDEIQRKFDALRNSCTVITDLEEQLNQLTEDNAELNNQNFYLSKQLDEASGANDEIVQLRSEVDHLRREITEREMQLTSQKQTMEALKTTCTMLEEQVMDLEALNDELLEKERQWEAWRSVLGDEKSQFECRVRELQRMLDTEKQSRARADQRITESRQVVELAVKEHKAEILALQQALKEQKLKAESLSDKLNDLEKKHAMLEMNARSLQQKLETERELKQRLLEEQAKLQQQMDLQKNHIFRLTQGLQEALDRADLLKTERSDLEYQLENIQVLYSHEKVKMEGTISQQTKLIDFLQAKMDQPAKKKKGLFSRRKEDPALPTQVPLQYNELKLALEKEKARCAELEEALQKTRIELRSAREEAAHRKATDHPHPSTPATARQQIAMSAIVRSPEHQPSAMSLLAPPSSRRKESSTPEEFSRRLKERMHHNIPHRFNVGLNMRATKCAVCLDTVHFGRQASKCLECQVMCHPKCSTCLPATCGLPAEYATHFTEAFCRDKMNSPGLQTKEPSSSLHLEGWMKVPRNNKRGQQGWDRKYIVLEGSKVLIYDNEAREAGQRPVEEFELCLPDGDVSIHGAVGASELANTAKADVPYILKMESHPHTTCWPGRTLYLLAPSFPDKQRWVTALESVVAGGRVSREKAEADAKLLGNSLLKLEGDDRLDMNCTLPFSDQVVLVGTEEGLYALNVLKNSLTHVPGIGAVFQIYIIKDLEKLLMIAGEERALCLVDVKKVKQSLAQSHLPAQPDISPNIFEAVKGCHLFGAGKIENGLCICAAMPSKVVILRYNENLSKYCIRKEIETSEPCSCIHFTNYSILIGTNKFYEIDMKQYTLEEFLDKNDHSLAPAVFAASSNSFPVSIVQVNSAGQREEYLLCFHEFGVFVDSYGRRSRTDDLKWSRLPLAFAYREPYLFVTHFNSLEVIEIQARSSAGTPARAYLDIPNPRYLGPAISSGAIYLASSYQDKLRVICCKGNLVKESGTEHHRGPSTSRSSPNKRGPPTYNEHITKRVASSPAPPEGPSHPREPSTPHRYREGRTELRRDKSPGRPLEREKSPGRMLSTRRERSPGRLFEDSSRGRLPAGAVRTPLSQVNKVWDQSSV

Structure (SMILES): CC(=O)c1cnc2ccc(-c3cc(Cl)c(O)c(Cl)c3)nc2c1N[C@H]1CC[C@H](CN(C)C)CC1
Kd [1]: 0.098 µM (active)
Kd [2]: 0.058 µM (active)
Kd [3]: > 30 µM (inactive)
Kd [4]: > 30 µM (inactive)
Kd [5]: > 30 µM (inactive)
Kd (Obg-like ATPase 1): > 30 µM (inactive)
pKd [6]: 8.22

Structure (SMILES): Cc1cc(Nc2ncc(Cl)c(Nc3ccccc3S(=O)(=O)C(C)C)n2)c(OC(C)C)cc1C1CCNCC1 [CERITINIB]
Kd [1]: > 30 µM (inactive)
Kd [2]: > 30 µM (inactive)
Kd [3]: > 30 µM (inactive)
Kd [4]: > 30 µM (inactive)
Kd [5]: > 30 µM (inactive)
Kd [6]: > 30 µM (inactive)

Structure (SMILES): CC(C)(C)c1nc(-c2cccc(NS(=O)(=O)c3c(F)cccc3F)c2F)c(-c2ccnc(N)n2)s1 [DABRAFENIB]
Kd [1]: > 30 µM (inactive)
Kd [2]: 2.29 µM (active)
Kd [3]: > 30 µM (inactive)
Kd [4]: > 30 µM (inactive)
Kd [5]: > 30 µM (inactive)
Kd (Obg-like ATPase 1): > 30 µM (inactive)
Kd [6]: > 30 µM (inactive)

Structure (SMILES): Cc1nc2cc(-n3ncc(C(=O)c4cc5ccccc5[nH]4)c3N)ccc2[nH]1 [FGFR INHIBITOR DEBIO 1347]
Kd [1]: > 30 µM (inactive)
Kd [2]: > 30 µM (inactive)
Kd [3]: > 30 µM (inactive)
Kd [4]: > 30 µM (inactive)
Kd [5]: > 30 µM (inactive)
Kd (Obg-like ATPase 1): > 30 µM (inactive)

Structure (SMILES): N#CC1(c2ccc(NC(=O)c3cccnc3NCc3ccncc3)cc2)CCCC1 [RIVOCERANIB]
Kd [1]: > 30 µM (inactive)
Kd [2]: > 30 µM (inactive)
Kd [3]: > 30 µM (inactive)
Kd [4]: > 30 µM (inactive)
Kd [5]: > 30 µM (inactive)
Kd (Obg-like ATPase 1): > 30 µM (inactive)
Kd [6]: > 30 µM (inactive)

Structure (SMILES): CCS(=O)(=O)N1CCN(c2ccc(Nc3ncc(C(N)=O)c(NC4CC4)n3)cc2)CC1 [Cerdulatinib Hydrochloride]
Kd [1]: > 30 µM (inactive)
Kd [2]: 0.656 µM (active)
Kd [3]: > 30 µM (inactive)
Kd [4]: > 30 µM (inactive)
Kd [5]: > 30 µM (inactive)
Kd [6]: > 30 µM (inactive)

Structure (SMILES): Cc1nc2cc(-c3nn(C(C)C)c4ncnc(N)c34)ccc2o1
Kd [1]: > 30 µM (inactive)
Kd [3]: > 30 µM (inactive)
Kd [4]: > 30 µM (inactive)
Kd [5]: > 30 µM (inactive)
Kd (Obg-like ATPase 1): > 30 µM (inactive)
Kd [6]: > 30 µM (inactive)

Structure (SMILES): O=C1NC(=O)[C@@H](c2cn3c4c(cccc24)CCC3)[C@@H]1c1c[nH]c2ccccc12 [TIVANTINIB]
Kd [1]: > 30 µM (inactive)
Kd [2]: > 30 µM (inactive)
Kd [3]: > 30 µM (inactive)
Kd [4]: > 30 µM (inactive)
pKd [5]: 7.77
Kd (Obg-like ATPase 1): > 30 µM (inactive)

Structure (SMILES): CO[C@H]1C[C@@H]2CC[C@@H](C)[C@@](O)(O2)C(=O)C(=O)N2CCCC[C@H]2C(=O)O[C@H]([C@H](C)C[C@@H]2CC[C@@H](OP(C)(C)=O)[C@H](OC)C2)CC(=O)[C@H](C)/C=C(\C)[C@@H](O)[C@@H](OC)C(=O)[C@H](C)C[C@H](C)/C=C/C=C/C=C/1C [RIDAFOROLIMUS]
Kd [1]: > 30 µM (inactive)
Kd [2]: > 30 µM (inactive)
Kd [4]: > 30 µM (inactive)
Kd [5]: > 30 µM (inactive)
Kd [6]: > 30 µM (inactive)

Structure (SMILES): Cc1nc(NC(=O)N2CCC[C@H]2C(N)=O)sc1-c1ccnc(C(C)(C)C(F)(F)F)c1 [ALPELISIB]
Kd [1]: > 30 µM (inactive)
Kd [2]: > 30 µM (inactive)
Kd [3]: > 30 µM (inactive)
Kd [4]: > 30 µM (inactive)
Kd [5]: > 30 µM (inactive)
Kd (Obg-like ATPase 1): > 30 µM (inactive)

Structure (SMILES): COc1ncc(-c2ccc3nccc(-c4ccnnc4)c3c2)cc1NS(=O)(=O)c1ccc(F)cc1F [OMIPALISIB]
Kd [1]: > 30 µM (inactive)
Kd [2]: > 30 µM (inactive)
Kd [3]: > 30 µM (inactive)
Kd [4]: > 30 µM (inactive)
Kd [5]: > 30 µM (inactive)
Kd (Obg-like ATPase 1): > 30 µM (inactive)

Structure (SMILES): CN1CCN(CCOc2cc(OC3CCOCC3)c3c(Nc4c(Cl)ccc5c4OCO5)ncnc3c2)CC1 [SARACATINIB]
Kd [1]: > 30 µM (inactive)
Kd [3]: > 30 µM (inactive)
Kd [4]: > 30 µM (inactive)
Kd [5]: > 30 µM (inactive)
Kd [6]: > 30 µM (inactive)

Structure (SMILES): CCOc1cc2ncc(C#N)c(Nc3ccc(F)c(Cl)c3)c2cc1NC(=O)/C=C/CN(C)C [PELITINIB]
Kd [1]: > 30 µM (inactive)
Kd [2]: > 30 µM (inactive)
Kd [4]: > 30 µM (inactive)
Kd [5]: > 30 µM (inactive)
Kd (Obg-like ATPase 1): > 30 µM (inactive)
Kd [6]: > 30 µM (inactive)

Second part, the compound after the results:

Kd [1]: > 30 µM (inactive)
Kd [2]: > 30 µM (inactive)
Kd [3]: > 30 µM (inactive)
Kd [4]: > 30 µM (inactive)
Kd [5]: > 30 µM (inactive)
Kd (Obg-like ATPase 1): > 30 µM (inactive)
Kd [6]: > 30 µM (inactive)
Structure (SMILES): Cn1cc(-c2cnc3ccc4ccc(CS(=O)(=O)NCc5ccccn5)cc4c(=O)c3c2)cn1 [MK-8033]

Kd [1]: 2.89 µM (active)
Kd [2]: 1.93 µM (active)
Kd [3]: > 30 µM (inactive)
Kd [4]: > 30 µM (inactive)
Kd [5]: > 30 µM (inactive)
Kd [6]: > 30 µM (inactive)
Structure (SMILES): CCn1cc(-c2ccnc3[nH]c(-c4cccc(CN(C)C)c4)cc23)c(-c2ccc(NC(=O)N(C)C)cc2)n1 [GSK-1070916]

Kd [1]: > 30 µM (inactive)
Kd [2]: > 30 µM (inactive)
Kd [3]: > 30 µM (inactive)
Kd [4]: > 30 µM (inactive)
Kd [5]: > 30 µM (inactive)
Kd [6]: > 30 µM (inactive)
Structure (SMILES): CC(C)c1cc(CNc2nc(Nc3cc(C4CC4)[nH]n3)cc(N3CCN(C)CC3)n2)on1 [XL-228]

Kd [1]: > 30 µM (inactive)
Kd [2]: 0.146 µM (active)
Kd [3]: > 30 µM (inactive)
Kd [4]: > 30 µM (inactive)
Kd [5]: > 30 µM (inactive)
Kd [6]: > 30 µM (inactive)
Structure (SMILES): Nc1ncnc2c1c(-c1cccc(OCc3ccccc3)c1)cn2[C@H]1C[C@@H](CN2CCC2)C1 [AEW-541]

Kd [1]: > 30 µM (inactive)
Kd [2]: > 30 µM (inactive)
Kd [3]: > 30 µM (inactive)
Kd [4]: > 30 µM (inactive)
Kd [5]: > 30 µM (inactive)
Kd (Obg-like ATPase 1): > 30 µM (inactive)
Structure (SMILES): CCn1c(C(=O)N(C2CC2)C2CC2)cc2c3c(ncn3C)c(Nc3cc(C)n(C)n3)nc21 [BMS-911543]
